Holding throughout (format): functional, cell-based
Assay [1] deals with THP-1. In words: Cytotoxicity against human THP1 cells assessed as reduction in cell viability after 24 hrs by MTT assay. The settings on record: THP-1, 24 h. In general terms: Tetrazolium assays rely on reduction of a dye to a coloured formazan, in cell work by metabolically active cells.
Assay [2] deals with HL-60. In words: Cytotoxicity against human HL60 cells assessed as reduction in cell viability after 24 hrs by MTT assay. As to conditions: HL-60, 24 h.
Assay [3] can be described thus: Cytotoxicity against human U937 cells assessed as reduction in cell viability after 24 hrs by MTT assay. The settings on record: U-937, 24 h.
The subject of assay [4] is B16-F10. Nature of the assay: Cytotoxicity against mouse B16F10 cells assessed as reduction in cell viability after 24 hrs by MTT assay. The settings on record: B16-F10, 24 h.
Assay [5] relates to B16-F10. Nature of the assay: Cytotoxicity against mouse B16F10 cells assessed as reduction in cell viability at 100 ug/ml after 24 hrs by MTT assay.
Assay [6] has as its system U-937. Nature of the assay: Cytotoxicity against human U937 cells assessed as reduction in cell viability at 100 ug/ml after 24 hrs by MTT assay.
In assay [7] the test system is HL-60. In words: Cytotoxicity against human HL60 cells assessed as reduction in cell viability at 100 ug/ml after 24 hrs by MTT assay.
In assay [8] the test system is THP-1. In words: Cytotoxicity against human THP1 cells assessed as reduction in cell viability at 100 ug/ml after 24 hrs by MTT assay.

Data on 28 compounds can be found in ChEMBL document CHEMBL3112418, “Synthesis of novel 1,2,3-triazole tagged pyrazolo[3,4-b]pyridine derivatives and their cytotoxic activity” (Bioorg Med Chem Lett, 2014).

Converted amounts (≈) assume the structure as drawn. The source made the active and inactive calls. The calls are words filed in the database; no cut-off is given here.

Usually IC50 stands for the concentration that gives 50% inhibition.

As to `COc1cc([C@@H]2c3cc4c(cc3[C@@H](O[C@@H]3O[C@@H]5CO[C@@H](C)O[C@H]5[C@H](O)[C@H]3O)[C@H]3COC(=O)[C@H]23)OCO4)cc(OC)c1O` [ETOPOSIDE], the IC50 in assay [1] is 6.34 µg/mL (≈ 10.8 µM); in assay [2], 2.13 µg/mL (≈ 3.62 µM); in assay [3], 6.7 µg/mL (≈ 11.4 µM); in assay [4], 3.8 µg/mL (≈ 6.46 µM).

For the compound `CCCCn1cc(Cn2nc(N)c3c(C(F)(F)F)cc(-c4ccccc4)nc32)nn1`, the result in assay [5] and in assay [6] was inactive. For the same compound, the IC50 in assay [1] is 46.1 µg/mL (≈ 111 µM); in assay [2] it was 36.7 µg/mL (≈ 88.4 µM).

Turning to `Nc1nn(Cc2cn(-c3cccc(Cl)c3)nn2)c2nc(-c3ccccc3)cc(C(F)(F)F)c12`, the outcome in assay [7], in assay [5] and in assay [8] was inactive.

Regarding `COc1ccc(-n2cc(Cn3nc(N)c4c(C(F)(F)F)cc(-c5ccccc5)nc43)nn2)cc1`, the result in assay [7], in assay [5], in assay [6] and in assay [8] was inactive.

On to `Nc1nn(Cc2cn(CCC(F)(F)C(F)(F)C(F)(F)C(F)(F)C(F)(F)C(F)(F)F)nn2)c2nc(-c3ccccc3)cc(C(F)(F)F)c12`, for which the outcome in assay [5] and in assay [8] was inactive. In addition, the IC50 in assay [2] stood at 97.6 µg/mL (≈ 138 µM); in assay [3] it was 98.2 µg/mL (≈ 139 µM).

Turning to `Nc1nn(Cc2cn(CC(=O)NC3CCCCC3)nn2)c2nc(-c3ccccc3)cc(C(F)(F)F)c12`, the IC50 in assay [1] is 64.8 µg/mL (≈ 130 µM); in assay [2] it was 42.9 µg/mL (≈ 86.2 µM); in assay [3], 89 µg/mL (≈ 179 µM); in assay [4] it was 99.1 µg/mL (≈ 199 µM).

On to `Cc1ccc(-n2cc(Cn3nc(N)c4c(C(F)(F)F)cc(-c5ccccc5)nc43)nn2)cc1`, for which the result in assay [7], in assay [5] and in assay [6] was inactive. Further, the IC50 in assay [1] is 98.6 µg/mL (≈ 219 µM).

Take `Cc1ccc(NC(=O)Cn2cc(Cn3nc(N)c4c(C(F)(F)F)cc(-c5ccccc5)nc43)nn2)cc1`: the outcome in assay [7] and in assay [5] was inactive. The IC50 in assay [1] was determined as 41.5 µg/mL (≈ 81.9 µM); in assay [3], 65.3 µg/mL (≈ 129 µM).

`Nc1nn(Cc2cn(-c3ccc(O)c([N+](=O)[O-])c3)nn2)c2nc(-c3ccccc3)cc(C(F)(F)F)c12`: the IC50 in assay [1] was found to be 36.2 µg/mL (≈ 73 µM); in assay [3], 41.3 µg/mL (≈ 83.1 µM); in assay [4], 42.3 µg/mL (≈ 85.1 µM).

In the case of `Nc1nn(Cc2cn(CC(=O)Nc3cccc(F)c3)nn2)c2nc(-c3ccccc3)cc(C(F)(F)F)c12`, the outcome in assay [5] was inactive. Besides, the IC50 in assay [1] stood at 99.5 µg/mL (≈ 195 µM); in assay [2], 63.9 µg/mL (≈ 125 µM); in assay [3], 43.5 µg/mL (≈ 85.3 µM).

Regarding `Nc1nn(Cc2cn(CC(=O)Nc3ccccc3Br)nn2)c2nc(-c3ccccc3)cc(C(F)(F)F)c12`, the outcome in assay [5] and in assay [6] was inactive. Also, the IC50 in assay [1] is 95.3 µg/mL (≈ 167 µM); in assay [2], 27.2 µg/mL (≈ 47.6 µM).

Regarding `Nc1nn(Cc2cn(-c3ccc(F)cc3)nn2)c2nc(-c3ccccc3)cc(C(F)(F)F)c12`, the result in assay [7], in assay [5], in assay [6] and in assay [8] was inactive.

In the case of `Nc1nn(Cc2cn(-c3ccc(F)c(Cl)c3)nn2)c2nc(-c3ccccc3)cc(C(F)(F)F)c12`, the result in assay [5] and in assay [8] was inactive. Further, the concentration for half-maximal inhibition (IC50) in assay [2] is 35 µg/mL (≈ 71.8 µM); in assay [3] it was 99.1 µg/mL (≈ 203 µM).

`Nc1nn(Cc2cn(-c3cccc(C(F)(F)F)c3)nn2)c2nc(-c3ccccc3)cc(C(F)(F)F)c12`: the outcome in assay [7], in assay [5], in assay [6] and in assay [8] was inactive.

As for `Nc1nn(Cc2cn(CC(=O)Nc3c(F)cccc3F)nn2)c2nc(-c3ccccc3)cc(C(F)(F)F)c12`, the IC50 in assay [1] is 43.3 µg/mL (≈ 81.9 µM); in assay [2], 32.8 µg/mL (≈ 62 µM); in assay [3], 30.6 µg/mL (≈ 58 µM); in assay [4], 41.6 µg/mL (≈ 78.7 µM).

On to `COc1ccc(NC(=O)Cn2cc(Cn3nc(N)c4c(C(F)(F)F)cc(-c5ccccc5)nc43)nn2)cc1`, for which the outcome in assay [7], in assay [5] and in assay [6] was inactive. Besides, in assay [1], the IC50 turned out to be 56.7 µg/mL (≈ 109 µM).

As for `Nc1nn(Cc2cn(CCC(F)(F)C(F)(F)C(F)(F)C(F)(F)C(F)(F)C(F)(F)C(F)(F)C(F)(F)F)nn2)c2nc(-c3ccccc3)cc(C(F)(F)F)c12`, the result in assay [7], in assay [5], in assay [6] and in assay [8] was inactive.

As to `Nc1nn(Cc2cn(CC(=O)Nc3ccccc3)nn2)c2nc(-c3ccccc3)cc(C(F)(F)F)c12`, the result in assay [5] and in assay [6] was inactive. For the same compound, the results for the IC50 in assay [1] and in assay [2] were 54.6 µg/mL (≈ 111 µM) and 96.3 µg/mL (≈ 196 µM), respectively.

As for `Nc1nn(Cc2cn(CC(=O)Nc3cccc(Cl)c3)nn2)c2nc(-c3ccccc3)cc(C(F)(F)F)c12`, the result in assay [7], in assay [5] and in assay [6] was inactive. Further, in assay [1], the concentration for half-maximal inhibition (IC50) amounted to 37 µg/mL (≈ 70.3 µM).

As for `Nc1nn(Cc2cn(CC(=O)Nc3ccc(F)cc3Br)nn2)c2nc(-c3ccccc3)cc(C(F)(F)F)c12`, the concentration for half-maximal inhibition (IC50) is 65.6 µg/mL (≈ 111 µM) in assay [1], 63.6 µg/mL (≈ 108 µM) in assay [2], 98.3 µg/mL (≈ 167 µM) in assay [3] and 98 µg/mL (≈ 166 µM) in assay [4].

As for `Nc1nn(Cc2cn(-c3ccccc3)nn2)c2nc(-c3ccccc3)cc(C(F)(F)F)c12`, the outcome in assay [7], in assay [5], in assay [6] and in assay [8] was inactive.

On to `Nc1nn(Cc2cn(-c3ccc([N+](=O)[O-])cc3)nn2)c2nc(-c3ccccc3)cc(C(F)(F)F)c12`, for which the result in assay [7], in assay [5] and in assay [8] was inactive. For the same compound, in assay [3], the IC50 was found to be 98.8 µg/mL (≈ 206 µM).

For the compound `Nc1nn(Cc2cn(CC(=O)Nc3ccc(F)cc3)nn2)c2nc(-c3ccccc3)cc(C(F)(F)F)c12`, the outcome in assay [5] and in assay [6] was inactive. For the same compound, the IC50 came out at 49.5 µg/mL (≈ 97.1 µM) in assay [1] and 44.8 µg/mL (≈ 87.7 µM) in assay [2].

Turning to `CCCCCCCCn1cc(Cn2nc(N)c3c(C(F)(F)F)cc(-c4ccccc4)nc32)nn1`, the outcome in assay [7], in assay [5], in assay [6] and in assay [8] was inactive.

Take `CCCCCCCCCCn1cc(Cn2nc(N)c3c(C(F)(F)F)cc(-c4ccccc4)nc32)nn1`: the IC50 in assay [1] amounted to 48.7 µg/mL (≈ 97.4 µM); in assay [2], 29.9 µg/mL (≈ 59.8 µM); in assay [3], 27.1 µg/mL (≈ 54.3 µM); in assay [4], 84.9 µg/mL (≈ 170 µM).

With `CCCCCCn1cc(Cn2nc(N)c3c(C(F)(F)F)cc(-c4ccccc4)nc32)nn1`, the result in assay [7], in assay [5], in assay [6] and in assay [8] was inactive.

Take `Cc1c(Br)cccc1-n1cc(Cn2nc(N)c3c(C(F)(F)F)cc(-c4ccccc4)nc32)nn1`: the outcome in assay [7], in assay [5] and in assay [8] was inactive. In assay [3], the IC50 amounted to 97.2 µg/mL (≈ 184 µM).

Turning to `Nc1nn(Cc2cn(-c3ccc(Br)c(F)c3)nn2)c2nc(-c3ccccc3)cc(C(F)(F)F)c12`, the outcome in assay [7], in assay [5], in assay [6] and in assay [8] was inactive.
